Experimental data taken from article PMC9518264, “Design and synthesis of novel quinazolinone-based derivatives as EGFR inhibitors with antitumor activity” (Journal of Enzyme Inhibition and Medicinal Chemistry, 2022).

What was measured:
[1] = test system: NCI-H460; assay: cells; assay type: cell-based; details: Homo sapiens; NCI-H460; 10 μM; read-out: growth inhibition % (GI%)
[2] = test system: OVCAR-5; assay: cells; assay type: cell-based; details: Homo sapiens; OVCAR-5; 10 μM; read-out: growth inhibition % (GI%)
[3] = test system: MOLT-4; assay: cells; assay type: cell-based; details: Homo sapiens; MOLT-4; 10 μM; read-out: growth inhibition % (GI%)
[4] = test system: TK-10; assay: cells; assay type: cell-based; details: Homo sapiens; TK-10; 10 μM; read-out: growth inhibition % (GI%)
[5] = test system: SK-MEL-5; assay: cells; assay type: cell-based; details: Homo sapiens; SK-MEL-5; 10 μM; read-out: growth inhibition % (GI%)
[6] = test system: OVCAR-3; assay: NCI 60 cell line antiproliferative screening (SRB), Ovarian cancer; details: Homo sapiens, OVCAR-3, read-out: growth inhibition % (GI%)
[7] = test system: A498; assay: cells; assay type: cell-based; details: Homo sapiens; A498; 10 μM; read-out: growth inhibition % (GI%)
[8] = test system: HCT-116; assay: cells; assay type: cell-based; details: Homo sapiens; HCT-116; 10 μM; read-out: growth inhibition % (GI%)
[9] = test system: DU-145; assay: cells; assay type: cell-based; details: Homo sapiens; DU-145; 10 μM; read-out: growth inhibition % (GI%)
[10] = test system: MDA-MB-468; assay: NCI 60 cell line antiproliferative screening (SRB), Breast cancer; details: Homo sapiens, MDA-MB-468, read-out: growth inhibition % (GI%)
[11] = test system: OVCAR-4; assay: cells; assay type: cell-based; details: Homo sapiens; OVCAR-4; 10 μM; read-out: growth inhibition % (GI%)
[12] = test system: PC-3; assay: cells; assay type: cell-based; details: Homo sapiens; PC-3; 10 μM; read-out: growth inhibition % (GI%)
[13] = test system: SK-MEL-28; assay: cells; assay type: cell-based; details: Homo sapiens; SK-MEL-28; 10 μM; read-out: growth inhibition % (GI%)
[14] = test system: MCF7; assay: cells; assay type: cell-based; details: Homo sapiens; MCF7; 10 μM; read-out: growth inhibition % (GI%)
[15] = test system: NCI-H322M; assay: cells; assay type: cell-based; details: Homo sapiens, 10 μM, read-out: growth inhibition % (GI%)
[16] = test system: SNB-19; assay: cells; assay type: cell-based; details: Homo sapiens; SNB-19; 10 μM; read-out: growth inhibition % (GI%)
[17] = test system: SN12C; assay: cells; assay type: cell-based; details: Homo sapiens, 10 μM, read-out: growth inhibition % (GI%)
[18] = test system: RPMI-8226; assay: cells; assay type: cell-based; details: Homo sapiens; RPMI-8226; 10 μM; read-out: growth inhibition % (GI%)
[19] = test system: SW-620; assay: cells; assay type: cell-based; details: Homo sapiens; SW-620; 10 μM; read-out: growth inhibition % (GI%)
[20] = test system: CCRF-CEM; assay: cells; assay type: cell-based; details: Homo sapiens, 10 μM, read-out: growth inhibition % (GI%)
[21] = test system: NCI-H226; assay: cells; assay type: cell-based; details: Homo sapiens; NCI-H226; 10 μM; read-out: growth inhibition % (GI%)
[22] = test system: UO-31; assay: cells; assay type: cell-based; details: Homo sapiens; UO-31; 10 μM; read-out: growth inhibition % (GI%)
[23] = test system: NCI/ADR-RES; assay: cells; assay type: cell-based; details: Homo sapiens, 10 μM, read-out: growth inhibition % (GI%)
[24] = test system: SNB-75; assay: cells; assay type: cell-based; details: Homo sapiens; SNB-75; 10 μM; read-out: growth inhibition % (GI%)
[25] = test system: HOP-62; assay: cells; assay type: cell-based; details: Homo sapiens; HOP-62; 10 μM; read-out: growth inhibition % (GI%)
[26] = test system: SR; assay: cells; assay type: cell-based; details: Homo sapiens, 10 μM, read-out: growth inhibition % (GI%)
[27] = test system: HCT-15; assay: cells; assay type: cell-based; details: Homo sapiens; HCT-15; 10 μM; read-out: growth inhibition % (GI%)
[28] = test system: U251; assay: cells; assay type: cell-based; details: Homo sapiens, U-251; U251; 10 μM; read-out: growth inhibition % (GI%)
[29] = test system: UACC-257; assay: cells; assay type: cell-based; details: Homo sapiens; UACC-257; 10 μM; read-out: growth inhibition % (GI%)
[30] = test system: UACC-62; assay: cells; assay type: cell-based; details: Homo sapiens; UACC-62; 10 μM; read-out: growth inhibition % (GI%)
[31] = test system: T-47D; assay: cells; assay type: cell-based; details: Homo sapiens, T47D; T-47D; 10 μM; read-out: growth inhibition % (GI%)
[32] = test system: HOP-92; assay: cells; assay type: cell-based; details: Homo sapiens; HOP-92; 10 μM; read-out: growth inhibition % (GI%)
[33] = test system: HL-60(TB); assay: cells; assay type: cell-based; details: Homo sapiens; HL-60(TB); 10 μM; read-out: growth inhibition % (GI%)
[34] = test system: panel of 60 tumour cell lines; assay: NCI 60 cell line antiproliferative screening (SRB), whole panel or subpanels (means, ranges, words); assay type: cell-based, human; details: for inhibition at 10 µM: Homo sapiens, 60 cell, mean over the cell line panel, read-out: Mean growth inhibition % (mean GI%)
[35] = test system: NCI-H522; assay: cells; assay type: cell-based; details: Homo sapiens; NCI-H522; 10 μM; read-out: growth inhibition % (GI%)
[36] = test system: SK-MEL-2; assay: cells; assay type: cell-based; details: Homo sapiens; SK-MEL-2; 10 μM; read-out: growth inhibition % (GI%)
[37] = test system: SF-539; assay: cells; assay type: cell-based; details: Homo sapiens; SF-539; 10 μM; read-out: growth inhibition % (GI%)
[38] = test system: 786-0; assay: cells; assay type: cell-based; details: Homo sapiens; 786-0; 10 μM; read-out: growth inhibition % (GI%)
[39] = test system: SF-295; assay: cells; assay type: cell-based; details: Homo sapiens; SF-295; 10 μM; read-out: growth inhibition % (GI%)
[40] = test system: HCC-2998; assay: cells; assay type: cell-based; details: Homo sapiens; HCC-2998; 10 μM; read-out: growth inhibition % (GI%)
[41] = test system: BT-549; assay: cells; assay type: cell-based; details: Homo sapiens; BT-549; 10 μM; read-out: growth inhibition % (GI%)
[42] = test system: COLO-205; assay: cells; assay type: cell-based; details: Homo sapiens; COLO-205; 10 μM; read-out: growth inhibition % (GI%)
[43] = test system: HT29; assay: cells; assay type: cell-based; details: Homo sapiens, HT-29; HT29; 10 μM; read-out: growth inhibition % (GI%)
[44] = test system: A549/ATCC; assay: cells; assay type: cell-based; details: Homo sapiens; A549/ATCC; 10 μM; read-out: growth inhibition % (GI%)
[45] = test system: ACHN; assay: cells; assay type: cell-based; details: Homo sapiens, 10 μM, read-out: growth inhibition % (GI%)
[46] = test system: MALME-3M; assay: cells; assay type: cell-based; details: Homo sapiens; MALME-3M; 10 μM; read-out: growth inhibition % (GI%)
[47] = test system: EKVX; assay: cells; assay type: cell-based; details: Homo sapiens, 10 μM, read-out: growth inhibition % (GI%)

## O=C(CSc1nc2ccccc2c(=O)n1-c1ccccc1)NN=Cc1ccc(N2CCCCC2)cc1 [6g, 2-((4-oxo-3-phenyl-3,4-dihydroquinazolin-2-yl)thio)-N'-(4-(piperidin-1-yl)benzylidene) acetohydrazide]
[1]
  inhibition at 10 µM: < 15%
[2]
  inhibition at 10 µM: < 15%
[3]
  inhibition at 10 µM: 28.5%
[4]
  inhibition at 10 µM: < 15%
[5]
  inhibition at 10 µM: < 15%
[6]
  inhibition at 10 µM: < 15%
[7]
  inhibition at 10 µM: < 15%
[8]
  inhibition at 10 µM: 15.5%
[9]
  inhibition at 10 µM: < 15%
[10]
  inhibition at 10 µM: < 15%
[11]
  inhibition at 10 µM: < 15%
[12]
  inhibition at 10 µM: 18.5%
[13]
  inhibition at 10 µM: < 15%
[14]
  inhibition at 10 µM: 16.2%
[15]
  inhibition at 10 µM: < 15%
[16]
  inhibition at 10 µM: < 15%
[17]
  inhibition at 10 µM: < 15%
[18]
  inhibition at 10 µM: 17.6%
[19]
  inhibition at 10 µM: < 15%
[20]
  inhibition at 10 µM: < 15%
[21]
  inhibition at 10 µM: < 15%
[22]
  inhibition at 10 µM: 23.3%
[23]
  inhibition at 10 µM: < 15%
[24]
  inhibition at 10 µM: 19.9%
[25]
  inhibition at 10 µM: < 15%
[26]
  inhibition at 10 µM: 24.7%
[27]
  inhibition at 10 µM: 16.2%
[28]
  inhibition at 10 µM: < 15%
[29]
  inhibition at 10 µM: < 15%
[30]
  inhibition at 10 µM: < 15%
[31]
  inhibition at 10 µM: < 15%
[32]
  inhibition at 10 µM: 19.5%
[33]
  inhibition at 10 µM: < 15%
[34]
  inhibition at 10 µM: 4.28%
[35]
  inhibition at 10 µM: 15.3%
[36]
  inhibition at 10 µM: < 15%
[37]
  inhibition at 10 µM: < 15%
[38]
  inhibition at 10 µM: < 15%
[39]
  inhibition at 10 µM: < 15%
[40]
  inhibition at 10 µM: < 15%
[41]
  inhibition at 10 µM: < 15%
[42]
  inhibition at 10 µM: < 15%
[43]
  inhibition at 10 µM: < 15%
[44]
  inhibition at 10 µM: 15.1%
[45]
  inhibition at 10 µM: < 15%
[46]
  inhibition at 10 µM: < 15%
[47]
  inhibition at 10 µM: 20.4%

## CN1CCN(c2ccc(C=NNC(=O)CSc3nc4ccccc4c(=O)n3-c3ccccc3)cc2)CC1 [6i, N'-(4–(4-methylpiperazin-1-yl)benzylidene)-2-((4-oxo-3-phenyl-3,4-dihydroquinazolin-2-yl)thio) acetohydrazide]
[1]
  inhibition at 10 µM: < 15%
[2]
  inhibition at 10 µM: < 15%
[3]
  inhibition at 10 µM: < 15%
[4]
  inhibition at 10 µM: < 15%
[5]
  inhibition at 10 µM: < 15%
[6]
  inhibition at 10 µM: < 15%
[7]
  inhibition at 10 µM: 10.2%
[8]
  inhibition at 10 µM: < 15%
[9]
  inhibition at 10 µM: < 15%
[10]
  inhibition at 10 µM: < 15%
[11]
  inhibition at 10 µM: < 15%
[12]
  inhibition at 10 µM: < 15%
[13]
  inhibition at 10 µM: < 15%
[14]
  inhibition at 10 µM: < 15%
[15]
  inhibition at 10 µM: < 15%
[16]
  inhibition at 10 µM: < 15%
[17]
  inhibition at 10 µM: < 15%
[18]
  inhibition at 10 µM: < 15%
[19]
  inhibition at 10 µM: < 15%
[20]
  inhibition at 10 µM: < 15%
[21]
  inhibition at 10 µM: < 15%
[22]
  inhibition at 10 µM: < 15%
[23]
  inhibition at 10 µM: < 15%
[24]
  inhibition at 10 µM: < 15%
[25]
  inhibition at 10 µM: < 15%
[26]
  inhibition at 10 µM: < 15%
[27]
  inhibition at 10 µM: < 15%
[28]
  inhibition at 10 µM: < 15%
[29]
  inhibition at 10 µM: < 15%
[30]
  inhibition at 10 µM: < 15%
[31]
  inhibition at 10 µM: < 15%
[32]
  inhibition at 10 µM: < 15%
[33]
  inhibition at 10 µM: < 15%
[34]; 10 μM single dose
  antiproliferative activity against all tested cell lines: did not show activity
[34]
  inhibition at 10 µM: < 0%
[35]
  inhibition at 10 µM: < 15%
[36]
  inhibition at 10 µM: < 15%
[37]
  inhibition at 10 µM: < 15%
[38]
  inhibition at 10 µM: < 15%
[39]
  inhibition at 10 µM: < 15%
[40]
  inhibition at 10 µM: < 15%
[41]
  inhibition at 10 µM: < 15%
[42]
  inhibition at 10 µM: < 15%
[43]
  inhibition at 10 µM: < 15%
[44]
  inhibition at 10 µM: < 15%
[45]
  inhibition at 10 µM: < 15%
[46]
  inhibition at 10 µM: < 15%
[47]
  inhibition at 10 µM: < 15%
